The source of these data is patent US20210024483A1, “HETEROCYLCOALKENYL DERIVATIVES USEFUL AS AGONISTS OF THE GPR120 AND / OR GPR40” (Janssen Pharmaceutica NV, priority 2018, published 2021).

The target in test [1] is T1, Human GPR120 short form (short splice variant, NM_001195755.1) (Homo sapiens, UniProt Q5NUL3).
T1 construct: expressed in transfected cells; host or cells: HEK293
T1 sequence (Q5NUL3 1-361): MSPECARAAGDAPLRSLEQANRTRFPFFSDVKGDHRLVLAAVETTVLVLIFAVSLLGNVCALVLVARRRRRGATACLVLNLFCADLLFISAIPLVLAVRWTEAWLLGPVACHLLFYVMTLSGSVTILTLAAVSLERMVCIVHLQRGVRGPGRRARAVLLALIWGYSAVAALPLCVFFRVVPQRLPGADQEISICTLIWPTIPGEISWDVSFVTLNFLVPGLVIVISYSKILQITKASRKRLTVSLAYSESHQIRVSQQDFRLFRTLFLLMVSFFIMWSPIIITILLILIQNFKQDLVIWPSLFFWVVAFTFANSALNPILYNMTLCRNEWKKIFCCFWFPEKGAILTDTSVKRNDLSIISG
Kind of test: Human GPR120 Calcium Flux Assay. Format: cell-based. The settings on record: HEK-293 cells, 4200 cells/well, read-out: Human GPR120 Calcium Flux Assay Procedure B EC50. The text has this: In Vitro Assay: Human GPR120 in Calcium Flux Assay
This in vitro assay serves to assess test compound agonist activity against the short splice variant (SVS with Accession number NM_001195755.1 confirmed by sequencing data) of the GPR120 receptor. The Human Short splice variant #2 (NM_001195755.1) is missing an in-frame coding exon compared to variant 1 (the Human Long splice variant NM_181745.3), resulting in a shorter isoform (GPR120-S) lacking a 16 aa protein segment compared to isoform GPR120-L. The assay platform utilizes HEK-293 cells stably transfected to express the Human GPR120 short form. These cells are first loaded with the Ca^+2 sensitive dye, Fluo-4 NW. Upon stimulation, intracellular released Ca^+2 can bind to the dye and alter its fluorescence intensity. This increase in fluorescence signal, and thus the flux in intracellular [Ca^2+], is detected and quantitated by fluorescence imaging using a FLIPR reader. The effect of the agonist is measured as a function of concentration and used to calculate an EC50 based upon a response curve. […]
In this procedure 4200 cells/well were employed.
A Human GPR120 clone (Genbank accession number NM_001195755.1) was placed into the pcDNA3.1 mammalian expression vector carrying the neomycin resistance gene. A stable mammalian cell was generated by placing the above clone into a HEK293 background. Clonal cells responding to long chain fatty acids had expression levels of GPR120 confirmed by RT-qPCR. Human HEK-GPR120 cells were cultured in Dulbecco's Modified Eagle's Medium (DMEM)/F12 medium supplemented with 10% fetal bovine serum (FBS), 1% L-Glutamine and 1% penicillin/streptomycin and 0.5 mg/ml G-418. Cells were split 2 times a week to keep the cells in the log-phase growth.
In preparation for the assay, HEK cells stably transfected with Human GPR120 (2.5K cells per well in 25 uL growth medium) were seeded into 384-well plates and then incubated overnight (37° C., 5% CO2). The next day, the media was changed to 20 μL assay buffer and the cell starved for 1 h at 37° C. The dye loading solution (2× dye) was prepared using 10 mL assay buffer, 100 μL of 250 mM probenecid, 1 bottle of Component A, and 20 μl of dye in DMSO. Twenty μL of the 2× dye loading buffer was then added to each well. The plates were incubated at 37° C. for 30 min, then at room temperature for an additional 15 minutes, before performing the assay on FLIPR.
The assay was performed on a FLIPR plate reader using the following parameters. Baseline was read for 10 seconds at 1 sec intervals. The program was set to transfer 10 μL of ligand from compound plate to cell plate after baseline reading. Aspiration was executed at: 10 μL/sec speed, 4.6 μL height; Dispensing was executed at: 30 μL/sec speed, 45 μL height. After compound addition, each well was read for 300 sec, with measurements collected at 1 sec intervals.
The kinetic data from the FLIPR was based upon a 5 minute window for data collection. The fluorescence of each sample well was used for individual calculations of a normalized RFU value, which was defined as maximum response minus the minimum response. The normalized fluorescence reading (RFU) was calculated as follows:
The data were fitted to a sigmoidal dose-response curve with a variable Hill slope (<2) using nonlinear regression with GraphPad Prism 5.0 to calculate the EC50 values. The Fitting Equation was: Y=Bottom+(Top−Bottom)/(1+10^((Log EC50−X)*HillSlope)), where X is the log of the concentration and Y is the response.

Another test deals with GPR40 (UniProt O14842). Kind of test: GPR40 Calcium Flux Assay. Format: cell-based. The conditions noted are these: transfected HEK293 cells stably expressing human or rat GPR40; species not given. The method, then: Biological Example 3: In Vitro Assay
Compounds were tested in a calcium flux assay using transfected HEK293 cells stably expressing either human GPR40 or rat GPR40. Human GPR40 expressing cells were cultured in DMEM-High Glucose media supplemented with 10% fetal bovine serum, 1×L-Glutamine, 1× Penicillin/Streptomycin and 500 μg/mL G418. Rat GPR40 expressing cells were cultured in DMEM-High Glucose media supplemented with 10% fetal bovine serum and 1 μg/mL puromycin. Cells were plated into poly-D-lysine coated 384-well plates and cultured overnight in a 37° C. humidified tissue culture incubator under 5% CO2/90% O2 atmosphere.
On the day of the experiment, the culture media was replaced with assay buffer (HBSS, 20 mM HEPES, 0.1% BSA) and the cells incubated at 37° C. for 1 h. Calcium-sensitive fluorescent dye (Fluo 8 No-Wash Calcium Dye, ABD Bioquest) was then added and the cells incubated for another 30 min at 37° C. followed by 15 min at room temperature while protected from the light. The cell plate and a plate of diluted compounds of Formula (I) were loaded into a fluorescent plate reader that added compounds onto the cells while measuring the fluorescence intensity of each well. The plate reader recorded fluorescence intensity at 1 second intervals for 8 min and provided the data for analysis in an Excel format. EC50 values were calculated using Prism (GraphPad) software.

For the molecule `O=C(O)CCc1ccc(OCC2=C(Cc3ccc(Cl)cc3)CCOC2)cc1C(F)(F)F` [compound 696], the values for the EC50 (in test [1]; on GPR40) were more than 5000 nM and 218 nM, respectively.

On to `O=C(O)CCc1ccc(OCC2=C(c3cccc4c3OC(F)(F)O4)CCOC2)cc1C(F)(F)F` [compound 673], for which the 50% effective concentration (EC50) in test [1] was more than 5000 nM.

On to `CCC(C)C1=C(COc2ccc(CCC(=O)O)c(C(F)(F)F)c2)COCC1` (centres unmarked) [compound 734], for which the values for the concentration for a half-maximal effect (EC50) (in test [1]; on GPR40) were 10100 nM and 744 nM, respectively.

For the molecule `CC(C)CCC1=C(COc2ccc(CCC(=O)O)c(C(F)(F)F)c2)COCC1` [compound 722], the half-maximal effective concentration (EC50) in test [1] was 1190 nM; on GPR40, 973 nM.

As to `Cc1ccc(C2=C(COc3ccc(CCC(=O)O)c(C(F)(F)F)c3)COCC2)cc1` [compound 668], the 50% effective concentration (EC50) in test [1] is 498 nM.

Turning to `O=C(O)CCc1ccc(OCC2=C(C3CCCC3)COC2)cc1` [compound 632], the half-maximal effective concentration (EC50) in test [1] is 422 nM; at GPR40, 2580 nM.

`C=C(C1=C(COc2ccc(CCC(=O)O)c(C(F)(F)F)c2)COCC1)c1ccc(C(F)(F)F)cc1` [compound 705]: the values for the EC50 (in test [1]; on GPR40) were more than 5000 nM and 73 nM, respectively.

Consider `C=C(C1=C(COc2ccc(CCC(=O)O)cc2F)COCC1)c1ccccc1` [compound 723], for which the 50% effective concentration (EC50) is more than 5000 nM in test [1] and more than 10000 nM at GPR40.

Turning to `O=C(O)CCc1ccc(OCC2=C(C3CCCC3)CCOCC2)cc1` [compound 780], the EC50 was found to be 1310 nM in test [1] and 2660 nM at GPR40.

As to `O=C(O)CCc1ccc(OCC2=C(c3ccc(Cl)c(Cl)c3)CCOC2)cc1C(F)(F)F` [compound 680], in test [1], the concentration giving a half-maximal response (EC50) is 2630 nM.

For the molecule `CC(C)C1=C(COc2ccc(CCC(=O)O)c(C(F)(F)F)c2)COCC1` [compound 735], the concentration for a half-maximal effect (EC50) in test [1] is 2190 nM; at GPR40, 492 nM.

For `C=C(C1=C(COc2ccc(CCC(=O)O)cc2)COCC1)c1ccc(F)cc1` [compound 702], the EC50 in test [1] was more than 5000 nM; at GPR40, 1560 nM.

In the case of `CCCCCCC1=C(COc2ccc(CCC(=O)O)c(C(F)(F)F)c2)COCC1` [compound 719], the values for the 50% effective concentration (EC50) (in test [1]; on GPR40) were more than 5000 nM and 1020 nM, respectively.

Turning to `COc1cc(Cl)ccc1C1=C(COc2ccc(CCC(=O)O)c(C)c2C)COCC1` [compound 662], in test [1], the concentration for a half-maximal effect (EC50) is 2200 nM.

On to `O=C(O)CCc1ccc(OCC2=C(CC3CCCCC3)CCOC2)cc1C(F)(F)F` [compound 718], for which the EC50 in test [1] is more than 5000 nM; at GPR40, 1430 nM.

As to `C=C(C1=C(COc2ccc(CCC(=O)O)c(C(F)(F)F)c2)COCC1)c1ccc(F)cc1` [compound 703], the concentration giving a half-maximal response (EC50) in test [1] is more than 5000 nM; on GPR40, 68 nM.

Turning to `CC(C)Oc1ccccc1C1=C(COc2ccc(CCC(=O)O)c(C(F)(F)F)c2)COCC1` [compound 677], in test [1], the EC50 was more than 5000 nM.

Consider `Cc1cccc(C)c1C1=C(COc2ccc(CCC(=O)O)c(C(F)(F)F)c2)COCC1` [compound 671], for which, in test [1], the concentration for a half-maximal effect (EC50) was more than 5000 nM.

On to `CCC1=C(COc2ccc(CCC(=O)O)c(C(F)(F)F)c2)COCC1` [compound 716], for which the EC50 in test [1] is 1840 nM; on GPR40 it was 571 nM.

Turning to `Cc1cc(C)c(C2=C(COc3ccc(CCC(=O)O)c(C(F)(F)F)c3)COCC2)cc1C` [compound 681], in test [1], the EC50 was more than 5000 nM.

For `Cc1cc(C2=C(COc3ccc(CCC(=O)O)c(C)c3C)COCC2)ccc1F` [compound 661], the half-maximal effective concentration (EC50) in test [1] amounted to 527 nM.

As to `CC(C)CC1=C(COc2ccc(CCC(=O)O)c(C(F)(F)F)c2)COCC1` [compound 717], the figures for the EC50 (in test [1]; at GPR40) were 1300 nM and 133 nM, respectively.

In the case of `COc1cccc(C2=C(COc3ccc(CCC(=O)O)c(C)c3C)COCC2)c1` [compound 656], the EC50 in test [1] is 868 nM.

On to `O=C(O)CCc1ccc(OCC2=C(Cc3ccccc3)CCOC2)cc1C(F)(F)F` [compound 678], for which, in test [1], the 50% effective concentration (EC50) is more than 5000 nM.

As for `COc1ccccc1C1=C(COc2ccc(CCC(=O)O)c(C(F)(F)F)c2)COCC1` [compound 676], the EC50 in test [1] was more than 5000 nM.

For `Cc1c(CCC(=O)O)ccc(OCC2=C(c3ccc(Cl)c(F)c3)CCOC2)c1C` [compound 663], the concentration for a half-maximal effect (EC50) in test [1] was found to be 170 nM.

`Cc1ccc(C2=C(COc3ccc(CCC(=O)O)c(C)c3C)COCC2)cc1` [compound 655]: in test [1], the concentration for a half-maximal effect (EC50) turned out to be 94 nM.

For the molecule `CC1(C)CCC=C1C1=C(COc2ccc(CCC(=O)O)c(C(F)(F)F)c2)COCC1` [compound 670], in test [1], the half-maximal effective concentration (EC50) was more than 5000 nM.

For the molecule `Cc1cc(CCC(=O)O)ccc1OCC1=C(c2ccc(F)cc2)C[S+]([O-])C1` (centres unmarked) [compound 627], the EC50 in test [1] was more than 5000 nM.

On to `Cc1c(CCC(=O)O)ccc(OCC2=C(c3cccnc3)CCOC2)c1C` [compound 654], for which, in test [1], the EC50 was more than 5000 nM.

As for `Cc1c(CCC(=O)O)ccc(OCC2=C(c3ccc(F)cc3F)CCOC2)c1C` [compound 660], in test [1], the EC50 was 149 nM.

`Cc1ccc(C2=C(COc3ccc(CCC(=O)O)c(C(F)F)c3)COCC2)cc1` [compound 665]: in test [1], the 50% effective concentration (EC50) came out at 832 nM.

Regarding `Cc1ccc(C2=C(COc3cc(C(F)(F)F)c(CCC(=O)O)c(C(F)(F)F)c3)COCC2)cc1` [compound 666], in test [1], the EC50 is 2750 nM.

In the case of `Cc1ccc(C2=C(COc3ccc(CCC(=O)O)c(C(F)(F)F)c3)COCC2)cc1C` [compound 683], the EC50 in test [1] came to 1060 nM.

For `Cc1cc(C2=C(COc3ccc(CCC(=O)O)c(C(F)(F)F)c3)COCC2)ccc1Cl` [compound 679], the concentration giving a half-maximal response (EC50) in test [1] was determined as 1920 nM.

Consider `Cc1cc(Cl)ccc1C1=C(COc2ccc(CCC(=O)O)c(C(F)(F)F)c2)COCC1` [compound 682], for which, in test [1], the EC50 was more than 5000 nM.

On to `O=C(O)CCc1ccc(OCC2=C(c3ccccc3OC(F)(F)F)CCOC2)cc1C(F)(F)F` [compound 674], for which the EC50 in test [1] is more than 5000 nM.

Consider `COc1cc(C2=C(COc3ccc(CCC(=O)O)c(C)c3C)COCC2)ccc1Cl` [compound 664], for which the EC50 in test [1] was more than 5000 nM.

As for `Cc1cccc(C)c1C1=C(COc2ccc(CCC(=O)O)c(Cl)c2)COCC1` [compound 669], in test [1], the 50% effective concentration (EC50) is more than 5000 nM.

As for `Cc1cc(CCC(=O)O)ccc1OCC1=C(c2ccccc2)COC1` [compound 630], the 50% effective concentration (EC50) in test [1] amounted to 229 nM.

On to `Cc1c(CCC(=O)O)ccc(OCC2=C(c3ccc(Cl)cc3F)CCOC2)c1C` [compound 667], for which the EC50 in test [1] was 115 nM.

For `Cc1c(CCC(=O)O)ccc(OCC2=C(c3ccccc3F)CCOC2)c1C` [compound 651], the EC50 in test [1] is 202 nM.
